Molecular target: T1, Bcl-2 protein (Recombinant Human Bcl-2 Protein) (Homo sapiens, UniProt P10415)
T1 construct: purchased Novus NBP2-34889
Experiment: Binding evaluation of mixture library compounds to Bcl-2 using AS-MS (affinity selection mass spectrometry)
Settings: for ASMS ratio (%) n = 1: replicate n = 1; for ASMS ratio (%) n = 1 / ASMS ratio (%) n = 2: ASMS Ratio(%)=(A−C)/B×100; for ASMS ratio (%) n = 2: replicate n = 2
Outline: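 ASMS Ratio (%) was calculated as (A−C)/B×100, where A is the protein sample after SEC, B the protein-free sample without SEC and C the protein-free sample after SEC. Each compound was at […] in a 1200-member pool with 20 μM Bcl-2, incubated 1 h at 23° C.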

[1] = AS-MS, mixture of 1200 compounds, Bcl-2
[2] = AS-MS on the mixture of 1200 library compounds

T1 sequence (P10415 whole entry): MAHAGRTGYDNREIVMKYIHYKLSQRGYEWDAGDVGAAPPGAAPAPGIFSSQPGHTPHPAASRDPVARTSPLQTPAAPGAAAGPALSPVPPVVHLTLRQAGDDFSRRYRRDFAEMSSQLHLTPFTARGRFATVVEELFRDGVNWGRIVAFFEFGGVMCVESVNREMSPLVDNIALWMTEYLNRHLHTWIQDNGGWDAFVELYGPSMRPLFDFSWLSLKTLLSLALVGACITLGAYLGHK

In the case of CCOc1cccc(-c2cc(C(=O)N3CCN(c4ccc(C(=O)NS(=O)(=O)c5ccc(NCCSc6ccccc6)c([N+](=O)[O-])c5)cc4)CC3)cc(C(C)(C)C)c2)c1 [B2Q037-01, 4-[4-[3-tert-Butyl-5-(3-ethoxyphenyl)benzoyl]piperazin-1-yl]-N-[3-nitro-4-(2-phenylsulfanylethylamino)phenyl]sulfonylbenzamide], the “ASMS ratio (%) n = 1” value (AS-MS, mixture library, Bcl-2) is reported as 10.9% and the “ASMS ratio (%) n = 2” value (AS-MS, mixture library, Bcl-2) is reported as −1.5%.

With CCOc1cccc(-c2ccccc2CCC(=O)N2CCN(c3ccc(C(=O)NS(=O)(=O)C(C)(C)C)cc3)CC2)c1 [B2L033-01, N-tert-Butylsulfonyl-4-[4-[3-[2-(3-ethoxyphenyl)phenyl]propanoyl]piperazin-1-yl]benzamide] the “ASMS ratio (%)” value (n = 1) was 0.0% and the “ASMS ratio (%)” value (n = 2) was 0.0%.

CCOc1cncc(-c2cc(C(=O)N3CCN(c4ccc(C(=O)NS(=O)(=O)C(C)(C)C)nn4)CC3)cc(C(F)(F)F)c2)c1 [B2L018-01, N-tert-Butylsulfonyl-6-[4-[3-(5-ethoxypyridin-3-yl)-5-(trifluoromethyl)benzoyl]piperazin-1-yl]pyridazine-3-carboxamide] was tested, and the “ASMS ratio (%)” value (n = 1) was −1.9% and the “ASMS ratio (%)” value (n = 2) was −2.5%.

With CCOc1cncc(-c2ccc(CN3CCN(c4ccc(C(=O)NS(=O)(=O)c5ccc(NCCSc6ccccc6)c(C(F)(F)F)c5)nn4)CC3)c3ccccc23)c1 [B2R092-01, 6-[4-[[4-(5-Ethoxypyridin-3-yl)naphthalen-1-yl]methyl]piperazin-1-yl]-N-[4-(2-phenylsulfanylethylamino)-3-(trifluoromethyl)phenyl]sulfonylpyridazine-3-carboxamide] the “ASMS ratio (%)” value (n = 1) was 16.0% and the “ASMS ratio (%)” value (n = 2) was −1.3%.

With CCOc1cncc(-c2ccc(CN3CCN(c4ccc(C(=O)NCC(F)(F)F)nn4)CC3)cc2C)c1 [B1K074-01, 6-[4-[[4-(5-Ethoxypyridin-3-yl)-3-methylphenyl]methyl]piperazin-1-yl]-N-(2,2,2-trifluoroethyl)pyridazine-3-carboxamide] the “ASMS ratio (%) n = 1” value [1] was 0.0% and the “ASMS ratio (%) n = 2” value [1] was 0.0%.

With CCOc1cccc(-c2ccc(CN3CCN(c4ccc(C(=O)N(CC)CC)nn4)CC3)cc2C)c1 [B4J073-01, 6-[4-[[4-(3-Ethoxyphenyl)-3-methylphenyl]methyl]piperazin-1-yl]-N,N-diethylpyridazine-3-carboxamide] the “ASMS ratio (%) n = 1” value (AS-MS, mixture library, Bcl-2) was 2.1% and the “ASMS ratio (%) n = 2” value (AS-MS, mixture library, Bcl-2) was 0.0%.

In the case of CCOc1cncc(-c2ccc(CN3CCN(c4ccc(C(=O)NS(=O)(=O)c5ccc(NCCSc6ccccc6)c(C(F)(F)F)c5)cc4)CC3)cc2F)c1 [B2R052-01, 4-[4-[[4-(5-Ethoxypyridin-3-yl)-3-fluorophenyl]methyl]piperazin-1-yl]-N-[4-(2-phenylsulfanylethylamino)-3-(trifluoromethyl)phenyl]sulfonylbenzamide], the “ASMS ratio (%)” value (n = 1) is reported as 0.0% and the “ASMS ratio (%)” value (n = 2) is reported as −7.4%.

CCOc1cncc(-c2ccc(CN3CCN(c4ccc(C(=O)NS(C)(=O)=O)cc4)CC3)c3ccccc23)c1 [B2I066-01, 4-[4-[[4-(5-Ethoxypyridin-3-yl)naphthalen-1-yl]methyl]piperazin-1-yl]-N-methylsulfonylbenzamide] was tested, and the “ASMS ratio (%)” value (n = 1) was 0.0% and the “ASMS ratio (%)” value (n = 2) was 0.0%.

With “4-[4-[[2-(5-Ethoxypyridin-3-yl)phenyl]methyl]piperazin-1-yl]-N-propylbenzamide [B1M041-01]” the “ASMS ratio (%) n = 1” value [1] was 0.7% and the “ASMS ratio (%) n = 2” value [1] was −3.5%.

CCOc1cccc(-c2cc(C(=O)N3CCN(c4ccc(C(=O)N(CC)CC)cc4)CC3)cc(C(C)(C)C)c2)c1 [B4J037-01, 4-[4-[3-tert-Butyl-5-(3-ethoxyphenyl)benzoyl]piperazin-1-yl]-N,N-diethylbenzamide] was tested, and the “ASMS ratio (%) n = 1” value [2] was 2.7% and the “ASMS ratio (%) n = 2” value [2] was −1.5%.

In the case of CCOc1cncc(-c2ccc(CN3CCN(c4ccc(C(=O)NS(=O)(=O)c5ccc(NCCSc6ccccc6)c(C(F)(F)F)c5)cc4)CC3)c(CC)c2)c1 [B2R050-01, 4-[4-[[4-(5-Ethoxypyridin-3-yl)-2-ethylphenyl]methyl]piperazin-1-yl]-N-[4-(2-phenylsulfanylethylamino)-3-(trifluoromethyl)phenyl]sulfonylbenzamide], the “ASMS ratio (%)” value (n = 1) is reported as 0.0% and the “ASMS ratio (%)” value (n = 2) is reported as 0.0%.

With “6-[4-[4-(3-Ethoxyphenyl)-3-fluorobenzoyl]piperazin-1-yl]-N-propylpyridazine-3-carboxamide [B1M087-01]” the “ASMS ratio (%) n = 1” value [2] was 3.8% and the “ASMS ratio (%) n = 2” value [2] was 3.2%.

In the case of CCOc1cccc(-c2cc(C(=O)N3CCN(c4ccc(C(=O)NS(=O)(=O)CC56CC7CC(CC(C7)C5)C6)cc4)CC3)cc(C(C)(C)C)c2)c1 [B2A037-01, N-(1-Adamantylmethylsulfonyl)-4-[4-[3-tert-butyl-5-(3-ethoxyphenyl)benzoyl]piperazin-1-yl]benzamide], the “ASMS ratio (%) n = 1” value (AS-MS, mixture library, Bcl-2) is reported as 3.0% and the “ASMS ratio (%) n = 2” value (AS-MS, mixture library, Bcl-2) is reported as 0.0%.

For CCOc1cccc(-c2ccccc2CN2CCN(c3ccc(C(=O)NS(=O)(=O)C(C)(C)C)cc3)CC2)c1 [B2L045-01, N-tert-Butylsulfonyl-4-[4-[[2-(3-ethoxyphenyl)phenyl]methyl]piperazin-1-yl]benzamide], the “ASMS ratio (%)” value (n = 1) was 0.0% and the “ASMS ratio (%)” value (n = 2) was 0.0%.

For CCOc1cccc(-c2cc(C(=O)N3CCN(c4ccc(C(=O)NS(=O)(=O)CC56CC7CC(CC(C7)C5)C6)nn4)CC3)cc(C(F)(F)F)c2)c1 [B2A017-01, N-(1-Adamantylmethylsulfonyl)-6-[4-[3-(3-ethoxyphenyl)-5-(trifluoromethyl)benzoyl]piperazin-1-yl]pyridazine-3-carboxamide], the “ASMS ratio (%) n = 1” value (AS-MS, mixture library, Bcl-2) was 18.6% and the “ASMS ratio (%) n = 2” value (AS-MS, mixture library, Bcl-2) was 7.5%.

CCOc1cncc(-c2ccc(CN3CCN(c4ccc(C(=O)Nc5ccc(OC)cc5)nn4)CC3)c(CC)c2)c1 [B1O076-01, 6-[4-[[4-(5-Ethoxypyridin-3-yl)-2-ethylphenyl]methyl]piperazin-1-yl]-N-(4-methoxyphenyl)pyridazine-3-carboxamide] was tested, and the “ASMS ratio (%) n = 1” value [2] was 4.4% and the “ASMS ratio (%) n = 2” value [2] was 1.1%.

CCOc1cncc(-c2ccc(C(C)N3CCN(c4ccc(C(=O)NCC(F)(F)F)cc4)CC3)cc2)c1 (centres unmarked) [B1K098-01, 4-[4-[1-[4-(5-Ethoxypyridin-3-yl)phenyl]ethyl]piperazin-1-yl]-N-(2,2,2-trifluoroethyl)benzamide] was tested, and the “ASMS ratio (%) n = 1” value [1] was −1.1% and the “ASMS ratio (%) n = 2” value [1] was −2.4%.

For CCOc1cccc(C#Cc2ccccc2C(=O)N2CCN(c3ccc(C(=O)NS(=O)(=O)CCC(F)(F)F)nn3)CC2)c1 [B2N007-01, 6-[4-[2-[2-(3-Ethoxyphenyl)ethynyl]benzoyl]piperazin-1-yl]-N-(3,3,3-trifluoropropylsulfonyl)pyridazine-3-carboxamide], the “ASMS ratio (%)” value (n = 1) was 0.0% and the “ASMS ratio (%)” value (n = 2) was 0.0%.

For CCOc1cccc(-c2cnn(-c3cc(C(=O)N4CCN(c5ccc(C(=O)NCC(F)(F)F)nn5)CC4)cc(C(F)(F)F)c3)c2)c1 [B1K021-01, 6-[4-[3-[4-(3-Ethoxyphenyl)pyrazol-1-yl]-5-(trifluoromethyl)benzoyl]piperazin-1-yl]-N-(2,2,2-trifluoroethyl)pyridazine-3-carboxamide], the “ASMS ratio (%) n = 1” value [1] was −0.5% and the “ASMS ratio (%) n = 2” value [1] was −1.9%.

CCOc1cncc(-c2cc(OC)c(CN3CCN(c4ccc(C(=O)N(C)CC56CC7CC(CC(C7)C5)C6)nn4)CC3)c(OC)c2)c1 [B3A086-01, N-(1-Adamantylmethyl)-6-[4-[[4-(5-ethoxypyridin-3-yl)-2,6-dimethoxyphenyl]methyl]piperazin-1-yl]-N-methylpyridazine-3-carboxamide] was tested, and the “ASMS ratio (%) n = 1” value [2] was −2.7% and the “ASMS ratio (%) n = 2” value [2] was −1.9%.

With CCOc1cccc(-c2cc(CN3CCN(c4ccc(C(=O)N(C)CC56CC7CC(CC(C7)C5)C6)nn4)CC3)cc(OC(F)(F)F)c2)c1 [B3A089-01, N-(1-Adamantylmethyl)-6-[4-[[3-(3-ethoxyphenyl)-5-(trifluoromethoxy)phenyl]methyl]piperazin-1-yl]-N-methylpyridazine-3-carboxamide] the “ASMS ratio (%) n = 1” value [2] was −5.5% and the “ASMS ratio (%) n = 2” value [2] was −7.2%.

In the case of CCOc1cccc(C#Cc2cc(C(=O)N3CCN(c4ccc(C(=O)N(CC)CC)cc4)CC3)cc(C(F)(F)F)c2)c1 [B4J041-01, 4-[4-[3-[2-(3-Ethoxyphenyl)ethynyl]-5-(trifluoromethyl)benzoyl]piperazin-1-yl]-N,N-diethylbenzamide], the “ASMS ratio (%) n = 1” value [2] is reported as 2.8% and the “ASMS ratio (%) n = 2” value [2] is reported as 1.7%.

With CCOc1cccc(-c2cc(CN3CCN(c4ccc(C(=O)NS(C)(=O)=O)nn4)CC3)cc(C(F)(F)F)c2)c1 [B2I087-01, 6-[4-[[3-(3-Ethoxyphenyl)-5-(trifluoromethyl)phenyl]methyl]piperazin-1-yl]-N-methylsulfonylpyridazine-3-carboxamide] the “ASMS ratio (%)” value (n = 1) was 1.3% and the “ASMS ratio (%)” value (n = 2) was −0.9%.

CCOc1cncc(-c2ccc(C(=O)N3CCN(c4ccc(C(=O)Nc5ccc(OC)cc5)cc4)CC3)cc2F)c1 [B1O028-01, 4-[4-[4-(5-Ethoxypyridin-3-yl)-3-fluorobenzoyl]piperazin-1-yl]-N-(4-methoxyphenyl)benzamide] was tested, and the “ASMS ratio (%) n = 1” value [2] was 4.9% and the “ASMS ratio (%) n = 2” value [2] was 0.4%.

With CCOc1cccc(-c2ccc(CN3CCN(c4ccc(C(=O)NCC56CC7CC(CC(C7)C5)C6)nn4)CC3)cc2F)c1 [B1A077-01, N-(1-Adamantylmethyl)-6-[4-[[4-(3-ethoxyphenyl)-3-fluorophenyl]methyl]piperazin-1-yl]pyridazine-3-carboxamide] the “ASMS ratio (%) n = 1” value [1] was 6.6% and the “ASMS ratio (%) n = 2” value [1] was −1.3%.
